# Measured values taken from a melting point compilation (Tetko et al.; mined from patent text by program, amines drawn as free bases though some values may be those of a salt).
row,melting point [°C],SMILES
1,114 to 116,CCc1c(C)nc2ccc(Cl)cn2c1=O
2,209 to 211,O=C(NNS(=O)(=O)c1ccccc1)c1ccc2[nH]ccc2c1
3,86.1 to 87.1,C=CCOc1ccc(C(=O)CC(C#N)(CCC)c2ccc(OC)cc2OC)cc1 (stereo not given)
4,204 to 205,O=C1Cc2cc(C(=O)c3ccccc3)ccc2N1
5,189 to 190,C[C@@H]1COC(=O)N1c1nc(-c2ccc(Br)cc2)cs1
6,71 to 72,COC1=C(OC)C(=O)C2=C(CCC(CCOc3ccccc3)CC2)C1=O
7,148 to 150,CSc1cccc(Cc2sc(NC(C)=O)nc2C=O)c1
8,134 to 136,CCCCNc1c(C(=O)OCC)cnc(O)c1C(C)=O
9,76 to 77,CC(C)c1cccc(-n2cnc(CO)c2)c1
10,169 to 171,CCCCC(CC)C(=O)Nc1ccc2c(c1)c(Cc1ccc(C(=O)NS(=O)(=O)c3ccccc3)cc1OC)cn2C (stereo not given)
11,236 to 239,COc1cc(-c2c3c(cc4ccc5c(c24)OCO5)C(=O)NC3)ccc1OCc1ccccc1
12,60 to 63,CCCCCCCCOc1cc(-n2c(=O)cc(C(F)(F)F)n(C)c2=O)c(F)cc1Cl
13,142 to 144,O=C(O)COc1cccc(COC(=O)N(c2ccccc2)c2ccccc2)c1
14,199 to 200,N#CCCNC(=O)c1cccc(-c2cc3c(ccn3Cc3ccc(Cl)cc3Cl)cn2)c1
15,113 to 118,COC(=O)c1c(S(C)(=O)=O)ccc(C(=O)O)c1C
16,296 to 298,Nc1nc(-c2cccc(C(F)(F)F)c2)nc2nc(-c3ccco3)nn12
17,251 to 252,COc1cc(F)ccc1C(=O)Nc1cc(-c2c(-c3ccc(F)c(C)c3)nc3cccnn23)ccn1
18,190 to 191,CCOC(=O)CNC(=O)c1cn2nc(Cl)ccc2n1
19,273 to 274,CSc1sc(C(=O)O)c2c1-c1nc(C)sc1CC2
20,> 300,Cn1cc(S(=O)(=O)Cl)c(=O)c2cc(F)ccc21

row,melting point [°C],SMILES
1,196 to 197,CCONC(=O)Cc1ccc2cc(OC)ccc2c1
2,78 to 79,CS(=O)(=O)Nc1ccc(CO)cc1Sc1ccc(F)cc1F
3,146,O=C1CCC(O)(c2ccc(Cl)c(Cl)c2)CN1Cc1ccc(F)cc1 (stereo not given)
4,98 to 99,COC(=O)c1cccc2c1CC(C)(C)CC2N(C)S(C)(=O)=O (stereo not given)
5,233 to 235,CCCCOc1ccc(-c2nnc(Nc3ccc(Cl)c(Cl)c3)s2)cc1
6,261 to 263,Nc1cccc(-n2c(=O)c3c(CCc4ccncc4)n[nH]c3c3cccnc32)c1
7,148 to 149,Cc1ccc(S(=O)(=O)Cl)c(C)c1NC(=O)CCl
8,92 to 95,COc1ccc2cc([C@H](C)C(=O)OCC(=O)COC(=O)Cc3ccc(CO[N+](=O)[O-])cc3)ccc2c1
9,99 to 101,CCOC(=O)Cn1ncc(-c2ccccc2)c1-c1ccc(N(C)C)cc1
10,213,O=C(O)CCCCCn1c2ccccc2c(=O)c2cc(Br)ccc21
11,132,O=C(O)C(=NO)c1cccs1
12,242,CNC1=NS(=O)(=O)N=C(Oc2ccccc2[N+](=O)[O-])N1C(C)C
13,177,ON=C1CCc2c(cccc2OCC(O)CN2CCN(C(c3ccccc3)c3ccccc3)CC2)C1 (stereo not given)
14,161 to 163,CC(C)(C)OC(=O)NCc1cc(C(C)(C)C)cc(Cl)c1O
15,212,Cc1ccc(S(=O)(=O)Nc2coc3ccccc3c2=S)cc1
16,176 to 178,Cc1c(C(=O)O)cnn1-c1ccc(OC(F)(F)F)cc1
17,262 to 263,COc1cc(OC)c2c(=O)[nH]c(-c3cc(C)c(OC)c(C)c3)cc2n1
18,113 to 117,COc1ccc(-n2nc(CC(C(=O)N(C)O)c3ccc(Cl)cc3)cc2-c2ccc(Cl)cc2)cc1 (stereo not given)
19,96 to 99,C=C(C)c1cc(-c2ccc(OCCNS(C)(=O)=O)cc2)n(-c2ccc(OC)nc2)n1
20,175,Cc1ccc2c(c1)-n1ccc3c1=C(CCC=3)c1nccn1-2
